A short description of one data set: Solubility. The class given is physicochemical.
For data set [1] the following is noted: bovine, not told, 960 min.
Description: Each compound dissolved in 10 mM HEPES buffer (containing 1%DMSO in the case of PQQ triesters) was put in an apparatus for measurement of membrane permeation constant and left to stand for 16 hours at 35 ° C. and then amount of the compound which migrated was measured by ultraviolet absorption (243 nm for PQQ 2Na and 255 nm for PQQ triester) to obtain membrane permeation constant.
Another data set concerns liver diseases. Conditions: cited from earlier work.
The test system of data set [2] is mice. Description: Kidney toxicity determined by urine test. The class given is in vivo, mouse. Conditions: mouse, in vivo, ip. How it is done: (2) Kidney toxicity determined by urine test
PQQ.2Na, PQQ trimethyl ester and PQQ triallyl ester were intraperitoneally administered to mice and they were bred in the same manner as in the above acute toxicity test. The doses per kg of body weight of mouse were 20, 40 and 80 mg for PQQ.2Na and 20, 40, 80, 160 and 200 mg for PQQ triesters. Urine was collected every day and glucose concentration was examined using clinical examination reagent (trademark: […] II manufactured by Miles.Sankyo Co.).

In the next data set the test system is kidney. Conditions: Watanabe et al 1989; cited from earlier work.
The subject of another data set is male mice SPF-ICR. Description: Acute toxicity test. Conditions: mouse, in vivo, ip. How it is done:
To male mice SPF-ICR five weeks old (supplied by Japan Charles River Co.) were intraperitoneally administered PQQ.2Na, PQQ trimethyl ester and PQQ triallyl ester at dosages of 40, 80, 160 and 200 mg per kg of body weight of mouse, respectively and they were bred for 14 days at 25° C. One group consisted of 8 mice. For administration, PQQ.2Na was dissolved in physiological saline and PQQ trimethyl ester and PQQ triallyl ester were suspended in 1%Tween 80-containing physiological saline, respectively.

The subject of data set [3] is mice. Description: Kidney toxicity determined by blood examination. The format is in vivo, mouse. The following applies: mouse, in vivo, ip. How it is done: (3) Kidney toxicity determined by blood examination:
After lapse of one day from the administration, the mice were fasted (only water was given) and then after 18 hours, blood was collected and serum was obtained therefrom. Glucose, urea nitrogen and creatinine in the serum were examined by clinical examination reagent (trademark: FUJI DRYCHEMSLIDE manufactured by Fuji Photo Film Co., Ltd.). The results are shown by average value of eight mice in Table 3.

Each structure is given as a SMILES string. Like-named read-outs stand apart in the source and are kept apart here.

Consider `O=C(OCc1ccccc1)c1cc(C(=O)OCc2ccccc2)c2c(n1)C(=O)C(=O)c1cc(C(=O)OCc3ccccc3)[nH]c1-2` [PQQ tribenzyl ester], for which the Solubility result was “Very soluble” in the data set “Solubility” (acetone); “Very soluble” in the data set “Solubility” (chloroform); “Very soluble” in the data set “Solubility” (ethanol); “Very soluble” in “Solubility” (methanol); “hardly soluble” in the data set “Solubility” (water).
For `CCOC(=O)c1cc(C(=O)OCC)c2c(n1)C(=O)C(=O)c1cc(C(=O)OCC)[nH]c1-2` [PQQ triethyl ester], in data set [1], the Membrane permeation constant is 1.22 ± 0.37 10^-7 cm^2 · sec^-1 and the “membrane permeation constant relative to that of PQQ.2Na” value was “about 2 times”.
As for `O=C(O)c1cc(C(=O)O)c2c(n1)C(=O)C(=O)c1cc(C(=O)O)[nH]c1-2` [PQQ, pyrrolo quinoline quinone], the “inhibition of liver diseases” value in the data set on liver diseases (administered intraperitoneally, Japanese Patent Kokai No. 63-192717) is recorded as “inhibit liver diseases”; in the data set with liver diseases (orally administered, Watanabe et al 1988), “not observed”. Further, the “kidney toxicity by urine test (in words)” value with mice [2] is listed as “showed kidney toxicity”. Also, in the data set with kidney, the kidney toxicity result is listed as “has kidney toxicity”.
Take `O=C(O)c1cc(C(=O)O)c2c(n1)C(=O)C(=O)c1cc(C(=O)O)[nH]c1-2` [PQQ.2Na, reference compound]: the “glucose in urine (in words)” value with mice [2] is recorded as “glucose was detected”. In addition, the glucose in urine entry in the data set with mice [2] (20 mg/kg), in the data set on mice [2] (40 mg/kg) and in the data set with mice [2] (80 mg/kg) was “-” each time. The mice died result is reported as “No mice died” with male mice SPF-ICR (40 mg/kg), “five mice died” with male mice SPF-ICR (80 mg/kg), “eight mice all died” with male mice SPF-ICR (160 mg/kg) and “eight mice all died” with male mice SPF-ICR (200 mg/kg). In data set [1], the Membrane permeation constant is on record as 0.68 ± 0.36 10^-7 cm^2 · sec^-1. In addition, the “creatinine in serum (in words)” value in the data set on mice [3] is on record as “much increase”. Moreover, in the data set with mice [3], the “glucose in serum (in words)” value is on record as “Sharp reduction”. Further, the “kidney toxicity (in words)” value with mice [3] is listed as “kidney toxicity was observed”. In addition, the “urea nitrogen in serum (in words)” value with mice [3] is reported as “much increase”. In addition, the Creatinine in serum in the data set on mice [3] (20 mg/kg) amounted to 0.5 mg/dL; with mice [3] (40 mg/kg), 2.3 mg/dL; in the data set with mice [3] (80 mg/kg) it was 3.4 mg/dL; in the data set on mice [3] (160 mg/kg) it was 4.2 mg/dL. In addition, the Glucose in serum worked out at 70 mg/dL in the data set with mice [3] (20 mg/kg), 60 mg/dL in the data set with mice [3] (40 mg/kg), 57 mg/dL with mice [3] (80 mg/kg) and 35 mg/dL in the data set with mice [3] (160 mg/kg). In addition, the “Urea nitrogen in serum” value in the data set on mice [3] (20 mg/kg) came to 21 mg/dL; with mice [3] (40 mg/kg) it was 110 mg/dL; in the data set with mice [3] (80 mg/kg), 130 mg/dL; with mice [3] (160 mg/kg) it was 139 mg/dL.

The record behind these values is US5061711A, “Method of curing liver diseases by using pyrrolo quinoline quinone triesters and novel pyrrolo quinoline quinone triesters” (Mitsubishi Gas Chemical Company, Inc., priority 1989, dated 1991).
